We go through four compounds from patent US8658416B2, “Toxin-eating bacteria and bioremediation” (priority 2008, dated 2014).

For data set [1], the system named is clonal bacterial isolates from 11 diverse soils. The data set is classed as cell-based, soil bacteria. Conditions: antibiotic as sole carbon source at 1 g/L in SCS media pH 5.5, 22° C., positive growth at least 10^8 cells/mL. Here is the method:
The pH was adjusted to 5.5 using HCl, and the media was sterilized through a 0.22 μm filter. Solid medium was prepared by adding 15 g agar per liter of liquid SCS media followed by autoclaving before adding antibiotics.
Clonal isolates from the liquid cultures were obtained by plating cultures out on SCS-antibiotic agar medium and resulting single colonies were picked and re-streaked on corresponding plates. Three colonies each were then inoculated into fresh SCS-antibiotic liquid media (5 mL) to confirm clonal phenotype. Final culture growth was recorded after 1 month incubation without shaking at 22° C. and cultures with at least 10^8 cells/mL were assayed as positive growth.
All antibiotics used were purchased from Sigma-Aldrich at the highest purities available.

Data set [2] can be described thus: Un-inoculated media controls monitored by HPLC (antibiotic stability in SCS medium). It counts as physicochemical. Conditions: 20 or 28 days, HPLC at 214 nm. As to the method:
Representative isolates capable of growth on penicillin and carbenicillin as sole carbon source were selected for analysis of antibiotic removal from the growth media by High Performance Liquid Chromatography (HPLC). 2 μL of these cultures were re-inoculated into fresh SCS-antibiotic medium (5 mL) and allowed to grow for 28 days. Samples of the cultures and un-inoculated media controls were taken at regular intervals throughout the 28 day period and the catabolism of penicillin and carbenicillin was monitored at 214 nm by HPLC of filtered media from samples using a Hewlett Packard 1090 Liquid Chromatograph and a Vydac C-18 column. HPLC was performed at a flow rate of 0.3 mL/min with an acetonitrile gradient going from 5% to 65% in 30 minutes in the presence of 0.1% trifluoroacetic acid.

In the case of `CC1(C)S[C@@H]2[C@H](NC(=O)C(C(=O)O)c3ccccc3)C(=O)N2[C@H]1C(=O)O` (stereo partly drawn) [carbenicillin, Carbenicillin], the “soils from which clonal isolates capable of subsisting on the antibiotic were obtained” value (“soils from which clonal isolates capable” for short) in data set [1] is “all the soils tested”. Also, the “antibiotic peak in the un-inoculated control over the same time course” value in data set [2] is listed as “remained relatively unchanged”. On to `Cc1onc(-c2c(Cl)cccc2Cl)c1C(=O)N[C@@H]1C(=O)N2[C@@H]1SC(C)(C)[C@@H]2C(=O)O` [dicloxacillin, Dicloxacillin], for which, in data set [1], the “soils from which clonal isolates capable” value is listed as 9 out of 11 soils. As to `CCn1cc(C(=O)O)c(=O)c2ccc(C)nc21` [nalidixic acid, Nalidixic acid], in data set [1], the “soils from which clonal isolates capable” value is given as “a majority of the soils”.

For `CC1(C)S[C@@H]2[C@H](NC(=O)Cc3ccccc3)C(=O)N2[C@H]1C(=O)O` [penicillin, Penicillin G], in data set [1], the “soils from which clonal isolates capable” value is on record as “all the soils tested”. Moreover, the “antibiotic peak in the un-inoculated control over the same time course” value in data set [2] is “remained the dominant peak”.
